Biological target: F508delCFTR (Homo sapiens, UniProt P13569, DEL508-508)
Experiment: Cell Surface Expression-Horse Radish Peroxidase (CSE-HRP) assay
Assay type: cell-based
Design: expressed in transfected cells; host or cells: CFBE41o- human lung derived epithelial cell line, doxycycline-inducible
Conditions: CFBE4lo-F508delCFTR-HRP cells; for EC50: 18-24 hours at 33° C., 8-point curve, highest concentration 20 μM, luminescence readout
Outline: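 Following 18-24 h compound exposure at 33° C. Expression was doxycycline-induced beforehand. % activity versus DMSO and a 3 μM corrector control gave maximum activity and EC50 from a variable-Hill sigmoidal fit.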

[1] = maximum % activity at any tested concentration, normalized to on-plate positive control (3 μM Example 1)

Sequence of F508delCFTR (P13569 with tags, fused parts or gaps DEL508-508): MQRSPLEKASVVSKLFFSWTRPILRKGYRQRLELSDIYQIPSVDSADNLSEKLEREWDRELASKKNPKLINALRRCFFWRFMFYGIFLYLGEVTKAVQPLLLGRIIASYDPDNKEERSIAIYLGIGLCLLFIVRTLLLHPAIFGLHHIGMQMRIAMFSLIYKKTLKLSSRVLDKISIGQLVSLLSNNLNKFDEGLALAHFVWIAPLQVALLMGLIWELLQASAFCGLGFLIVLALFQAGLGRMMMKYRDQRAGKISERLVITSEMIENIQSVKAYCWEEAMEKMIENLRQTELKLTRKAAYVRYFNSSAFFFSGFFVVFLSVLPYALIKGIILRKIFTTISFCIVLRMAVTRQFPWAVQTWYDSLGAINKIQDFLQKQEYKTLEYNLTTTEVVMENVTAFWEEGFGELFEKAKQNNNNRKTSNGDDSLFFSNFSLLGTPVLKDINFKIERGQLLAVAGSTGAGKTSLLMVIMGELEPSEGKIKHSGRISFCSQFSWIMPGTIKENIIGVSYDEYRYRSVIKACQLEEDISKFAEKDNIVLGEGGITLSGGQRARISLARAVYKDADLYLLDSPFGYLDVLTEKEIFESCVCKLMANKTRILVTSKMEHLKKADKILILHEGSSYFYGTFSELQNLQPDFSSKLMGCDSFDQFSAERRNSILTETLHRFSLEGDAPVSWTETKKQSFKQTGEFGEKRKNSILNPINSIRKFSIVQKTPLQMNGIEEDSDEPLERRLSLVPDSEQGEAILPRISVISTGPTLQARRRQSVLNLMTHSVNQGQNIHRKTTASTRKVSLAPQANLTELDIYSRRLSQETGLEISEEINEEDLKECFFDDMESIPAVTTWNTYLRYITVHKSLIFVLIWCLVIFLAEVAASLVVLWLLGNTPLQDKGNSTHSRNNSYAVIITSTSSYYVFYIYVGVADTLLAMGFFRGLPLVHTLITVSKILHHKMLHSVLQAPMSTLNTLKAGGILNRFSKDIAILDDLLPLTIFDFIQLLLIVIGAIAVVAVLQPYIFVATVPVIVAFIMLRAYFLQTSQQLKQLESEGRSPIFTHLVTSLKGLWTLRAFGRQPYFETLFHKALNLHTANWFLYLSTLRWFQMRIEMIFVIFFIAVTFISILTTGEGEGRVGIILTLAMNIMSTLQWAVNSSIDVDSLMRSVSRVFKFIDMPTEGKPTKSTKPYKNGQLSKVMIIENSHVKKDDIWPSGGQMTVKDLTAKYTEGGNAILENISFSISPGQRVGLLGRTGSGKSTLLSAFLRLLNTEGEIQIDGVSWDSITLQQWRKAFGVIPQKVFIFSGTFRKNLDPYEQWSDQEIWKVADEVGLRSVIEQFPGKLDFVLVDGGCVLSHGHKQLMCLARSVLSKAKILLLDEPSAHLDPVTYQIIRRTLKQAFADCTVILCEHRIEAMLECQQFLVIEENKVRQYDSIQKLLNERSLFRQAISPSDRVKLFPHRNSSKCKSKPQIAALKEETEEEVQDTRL

SMILES | EC50 | Emax [1] | Maximum % activity (%) [1]
COc1ccc2c(c1)O[C@@H](C(=O)N1CCCOCC1)C[C@H]2NC(=O)C1(c2ccc3c(c2)OC(F)(F)O3)CC1 (racemic) [Example 175, rac-1-(2,2-difluoro-1,3-benzodioxol-5-yl)-N-[(2R,4R)-7-methoxy-2-(1,4-oxazepan-4-ylcarbonyl)-3,4-dihydro-2H-chromen-4-yl]cyclopropanecarboxamide] | 3.2 µM | 54% | 
COc1ccc2c(c1)O[C@@H](C(=O)N1CCCOCC1)C[C@@H]2NC(=O)C1(c2ccc3c(c2)OC(F)(F)O3)CC1 (racemic) [Example 194, rac-1-(2,2-difluoro-1,3-benzodioxol-5-yl)-N-[(2R,4S)-7-methoxy-2-(1,4-oxazepan-4-ylcarbonyl)-3,4-dihydro-2H-chromen-4-yl]cyclopropanecarboxamide] | 0.88 µM | 68% | 
COc1ccc2c(c1)O[C@@H](C(=O)O)C[C@H]2NC(=O)C1(c2ccc3c(c2)OC(F)(F)O3)CC1 (racemic) [Example 164, rac-(2R,4R)-4-({[1-(2,2-difluoro-1,3-benzodioxol-5-yl)cyclopropyl]carbonyl}amino)-7-methoxy-3,4-dihydro-2H-chromene-2-carboxylic acid] | > 20 µM | 2% | 
COC(=O)c1ccc([C@H]2C[C@@H](NC(=O)C3(c4ccc5c(c4)OC(F)(F)O5)CC3)c3ccc(OC)cc3O2)nc1 (stereo in doubt) [Example 162, methyl rel-6-[(2R,4R)-4-({[1-(2,2-difluoro-1,3-benzodioxol-5-yl)cyclopropyl]carbonyl}amino)-7-methoxy-3,4-dihydro-2H-chromen-2-yl]pyridine-3-carboxylate] | 0.17 µM | 105% | 
COc1ccc2c(c1)O[C@@H](C(=O)Nc1ccccc1O)C[C@@H]2NC(=O)C1(c2ccc3c(c2)OC(F)(F)O3)CC1 (racemic) [Example 182, rac-(2R,4S)-4-({[1-(2,2-difluoro-1,3-benzodioxol-5-yl)cyclopropyl]carbonyl}amino)-N-(2-hydroxyphenyl)-7-methoxy-3,4-dihydro-2H-chromene-2-carboxamide] | 0.8 µM | 46% | 
COc1ccc2c(c1)O[C@@H](C(=O)N1CCOCC1)C[C@H]2NC(=O)C1(c2ccc3c(c2)OC(F)(F)O3)CC1 (racemic) [Example 177, rac-1-(2,2-difluoro-1,3-benzodioxol-5-yl)-N-[(2R,4R)-7-methoxy-2-(morpholin-4-ylcarbonyl)-3,4-dihydro-2H-chromen-4-yl]cyclopropanecarboxamide] | 2.91 µM | 56% | 
CC(=O)N1CC2(CC(NC(=O)C3(c4ccc5c(c4)OC(F)(F)O5)CC3)c3ccc(F)cc3O2)C1 (stereo not drawn) [Example 105, N-(1-acetyl-7′-fluoro-3′,4′-dihydrospiro[azetidine-3,2′-chromen]-4′-yl)-1-(2,2-difluoro-1,3-benzodioxol-5-yl)cyclopropanecarboxamide] | 7.46 µM | 34% | 
COc1ccc2c(n1)O[C@@H](c1cccc(C(=O)O)c1)C[C@@H]2NC(=O)C1(c2ccc3c(c2)OC(F)(F)O3)CC1 (racemic) [Example 29, rac-3-[(2R,4S)-4-({[1-(2,2-difluoro-1,3-benzodioxol-5-yl)cyclopropyl]carbonyl}amino)-7-methoxy-3,4-dihydro-2H-pyrano[2,3-b]pyridin-2-yl]benzoic acid] | 5.71 µM | 106% | 
O=C(O)c1ccc([C@H]2C[C@@H](NC(=O)C3(c4cc5c(cc4Br)OC(F)(F)O5)CC3)c3ccc(OC(F)F)cc3O2)cc1 [Example 202, 4-[(2R,4R)-4-({[1-(6-bromo-2,2-difluoro-1,3-benzodioxol-5-yl)cyclopropyl]carbonyl}amino)-7-(difluoromethoxy)-3,4-dihydro-2H-chromen-2-yl]benzoic acid] | 0.01 µM | 142% | 

Other lines, results leading:

EC50 | Emax [1] | Maximum % activity (%) [1] | SMILES
0.64 µM | 77% |  | COc1ccc2c(c1)O[C@@H](C(=O)N(C)CC(O)c1ccccc1)C[C@@H]2NC(=O)C1(c2ccc3c(c2)OC(F)(F)O3)CC1 (mixture of isomers) [Example 185, rac-(2R,4S)-4-({[1-(2,2-difluoro-1,3-benzodioxol-5-yl)cyclopropyl]carbonyl}amino)-N-(2-hydroxy-2-phenylethyl)-7-methoxy-N-methyl-3,4-dihydro-2H-chromene-2-carboxamide]
3.36 µM |  | 90% | O=C(O)c1cnc(C2CC(NC(=O)C3(c4ccc5c(c4)OC(F)(F)O5)CC3)c3ccccc3O2)s1 (single isomer, unassigned) [Example 136]
2.8 µM | 26% |  | O=C(NC1CC2(CCNCC2)Oc2cc(F)ccc21)C1(c2ccc3c(c2)OC(F)(F)O3)CC1 (stereo not drawn) [Example 93, 1-(2,2-difluoro-1,3-benzodioxol-5-yl)-N-(7-fluoro-3,4-dihydrospiro[chromene-2,4′-piperidin]-4-yl)cyclopropanecarboxamide]
1.52 µM | 77% |  | CCOC(=O)c1csc([C@@H]2C[C@H](NC(=O)C3(c4ccc5c(c4)OC(F)(F)O5)CC3)c3ccc(OC)cc3O2)n1 (stereo in doubt) [Example 157, ethyl rel-2-[(2S,4S)-4-({[1-(2,2-difluoro-1,3-benzodioxol-5-yl)cyclopropyl]carbonyl}amino)-7-methoxy-3,4-dihydro-2H-chromen-2-yl]-1,3-thiazole-4-carboxylate]
1.71 µM | 67% |  | COc1ccc2c(c1)O[C@@H](C(=O)NCCc1cccc(O)c1)C[C@@H]2NC(=O)C1(c2ccc3c(c2)OC(F)(F)O3)CC1 (racemic) [Example 198, rac-(2R,4S)-4-({[1-(2,2-difluoro-1,3-benzodioxol-5-yl)cyclopropyl]carbonyl}amino)-N-[2-(3-hydroxyphenyl)ethyl]-7-methoxy-3,4-dihydro-2H-chromene-2-carboxamide]
6.84 µM | 94% |  | O=C(NC1CC(c2cccc(Cl)c2)Oc2ccccc21)C1(c2ccc3c(c2)OC(F)(F)O3)CC1 (stereo not drawn) [Example 70, N-[2-(3-chlorophenyl)-3,4-dihydro-2H-chromen-4-yl]-1-(2,2-difluoro-1,3-benzodioxol-5-yl)cyclopropanecarboxamide]
0.63 µM | 106% |  | COc1ccc2c(c1)OC(c1ccc(Cl)cc1)CC2NC(=O)C1(c2ccc3c(c2)OC(F)(F)O3)CC1 (stereo not drawn) [Example 63, N-[2-(4-chlorophenyl)-7-methoxy-3,4-dihydro-2H-chromen-4-yl]-1-(2,2-difluoro-1,3-benzodioxol-5-yl)cyclopropanecarboxamide]
1.69 µM | 112% |  | COc1ccc2c(c1)O[C@@H](c1cccnc1)C[C@H]2NC(=O)C1(c2ccc3c(c2)OC(F)(F)O3)CC1 (racemic) [Example 57, rac-1-(2,2-difluoro-1,3-benzodioxol-5-yl)-N-[(2R,4R)-7-methoxy-2-(pyridin-3-yl)-3,4-dihydro-2H-chromen-4-yl]cyclopropanecarboxamide]
2.71 µM | 122% |  | COc1ccc2c(c1)O[C@@H](c1cccc(C(=O)O)c1)C[C@@H]2NC(=O)C1(c2ccc3c(c2)OC(F)(F)O3)CC1 [Example 2, 3-[(2R,4S)-4-({[1-(2,2-difluoro-1,3-benzodioxol-5-yl)cyclopropyl]carbonyl}amino)-7-methoxy-3,4-dihydro-2H-chromen-2-yl]benzoic acid]
